The source made the active and inactive calls. The calls are words filed in the database; no cut-off is given here.
Legend:
Type in all cases: cell-based
[1] = target: T1, Toll-like receptor 8 (Homo sapiens) (UniProt Q9NR97); assay: Activation of human TLR8 expressed in HEK-Blue cells assessed as increase in NF-kappaB activation at 5 to 25 uM incubated for 24 hrs by quanti-blue SEAP assay
T1 sequence (whole entry): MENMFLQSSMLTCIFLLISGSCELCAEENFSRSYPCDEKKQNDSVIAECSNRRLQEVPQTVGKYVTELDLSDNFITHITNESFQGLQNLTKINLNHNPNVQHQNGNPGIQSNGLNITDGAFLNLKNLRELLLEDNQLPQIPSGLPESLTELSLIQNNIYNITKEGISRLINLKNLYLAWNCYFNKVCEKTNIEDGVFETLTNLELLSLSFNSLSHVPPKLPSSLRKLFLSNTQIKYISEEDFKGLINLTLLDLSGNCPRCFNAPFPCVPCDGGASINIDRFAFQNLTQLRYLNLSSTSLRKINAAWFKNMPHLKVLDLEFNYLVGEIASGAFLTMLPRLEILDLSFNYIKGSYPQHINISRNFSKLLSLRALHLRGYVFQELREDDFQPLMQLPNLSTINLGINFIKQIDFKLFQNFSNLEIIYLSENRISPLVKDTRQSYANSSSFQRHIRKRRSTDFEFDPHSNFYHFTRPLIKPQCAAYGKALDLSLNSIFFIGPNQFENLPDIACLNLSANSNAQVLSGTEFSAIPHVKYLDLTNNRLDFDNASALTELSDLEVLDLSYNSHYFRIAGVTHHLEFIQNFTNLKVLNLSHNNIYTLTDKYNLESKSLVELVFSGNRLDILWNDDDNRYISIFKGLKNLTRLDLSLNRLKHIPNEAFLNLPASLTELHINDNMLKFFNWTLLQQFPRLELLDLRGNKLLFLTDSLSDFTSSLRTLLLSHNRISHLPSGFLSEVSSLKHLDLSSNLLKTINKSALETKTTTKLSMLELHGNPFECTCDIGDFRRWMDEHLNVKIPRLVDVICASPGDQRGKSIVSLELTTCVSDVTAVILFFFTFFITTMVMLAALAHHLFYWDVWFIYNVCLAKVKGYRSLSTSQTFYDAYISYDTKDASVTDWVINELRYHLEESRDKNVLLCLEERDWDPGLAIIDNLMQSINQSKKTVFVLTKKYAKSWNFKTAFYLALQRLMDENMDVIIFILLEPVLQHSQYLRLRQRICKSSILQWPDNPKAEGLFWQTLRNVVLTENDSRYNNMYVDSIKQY

[2] = Cytotoxicity against human HEK-Blue cells transfected with hTLR8 at 25 to 50 uM after 24 hrs by MTT assay
[3] = target: T1, Toll-like receptor 8 (Homo sapiens); assay: Antagonist activity at human TLR8 expressed in HEK-Blue cells assessed as reduction in CL075-induced NF-kappaB activation at 25 uM incubated for 1 hr followed by CL075-stimulation and measured after 24 hrs by quanti-blue SEAP assay relative to control
[4] = target: Toll-like receptor 2 (Homo sapiens) (UniProt O60603); assay: Antagonist activity at TLR2 in human THP1 cells assessed as inhibition of Pam2CSK4/Pam3CSK4-induced IL-8 secretion preincubated for 1 hr followed by Pam2CSK4/Pam3CSK4 stimulation and measured after 24 hrs by ELISA; conditions: concentration not given here
Chain of Toll-like receptor 2 (Homo sapiens) (O60603 whole entry): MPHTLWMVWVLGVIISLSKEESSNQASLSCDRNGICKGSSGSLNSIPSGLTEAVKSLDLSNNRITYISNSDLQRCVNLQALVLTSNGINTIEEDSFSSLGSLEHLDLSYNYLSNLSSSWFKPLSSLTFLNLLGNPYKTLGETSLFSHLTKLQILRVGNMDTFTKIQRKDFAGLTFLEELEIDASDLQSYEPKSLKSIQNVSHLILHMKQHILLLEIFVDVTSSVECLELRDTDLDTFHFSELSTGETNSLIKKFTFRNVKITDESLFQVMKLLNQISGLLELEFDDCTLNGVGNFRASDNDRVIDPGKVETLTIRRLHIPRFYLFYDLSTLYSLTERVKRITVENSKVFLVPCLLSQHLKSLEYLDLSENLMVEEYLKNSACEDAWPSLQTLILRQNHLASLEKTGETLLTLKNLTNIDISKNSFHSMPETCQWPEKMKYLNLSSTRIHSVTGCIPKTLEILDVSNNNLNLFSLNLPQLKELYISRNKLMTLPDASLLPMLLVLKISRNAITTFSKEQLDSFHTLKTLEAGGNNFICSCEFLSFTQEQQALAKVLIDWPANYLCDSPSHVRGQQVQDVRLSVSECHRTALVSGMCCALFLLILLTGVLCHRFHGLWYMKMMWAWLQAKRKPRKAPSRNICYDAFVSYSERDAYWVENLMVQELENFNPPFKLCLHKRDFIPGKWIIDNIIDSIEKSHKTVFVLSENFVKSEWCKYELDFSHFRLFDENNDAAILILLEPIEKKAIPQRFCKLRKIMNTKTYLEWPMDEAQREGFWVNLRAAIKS

SMILES | Activity [1] | Activity [2] | inhibition [3] [%] | inhibition [4] [%]
CCCSc1nc2ccccc2[nH]1 | inactive | Non-Toxic |  | 
CCn1cc(-c2cc(C(F)(F)F)nc(NCc3ccco3)n2)cn1 | inactive | Non-Toxic |  | 
CCCCCCn1c(=O)[nH]c2ccccc21 | inactive | Non-Toxic |  | 
CCCCC(=O)c1c(C)[nH]c2ccccc12 | inactive | Non-Toxic |  | 
CC(C)OC(=O)CSc1nc2ccc[nH]c-2n1 | inactive | Non-Toxic |  | 
CCOC(=O)c1ccc(NC(=O)C(CC)Sc2nc3ccccc3[nH]2)cc1 (stereo not given) | inactive | Non-Toxic | < 50 | 
COc1ccc(NC(=O)c2[nH]nc3ccccc23)cn1 | inactive | Non-Toxic |  | 
Cc1[nH]c2ccccc2c1C(=O)C(=O)NCc1ccncc1 | inactive | Non-Toxic | < 50 | 40
C=CCNc1nc(-c2ccco2)cc(C(F)(F)F)n1 | inactive | Non-Toxic |  | 
Oc1nc2ccccc2n1Cc1ccccc1 | inactive | Non-Toxic |  | 
C=CCNc1nc(C)nc(N2NC(C)=CC2C)n1 (stereo not given) | inactive | Non-Toxic |  | 
